Values quoted from earlier work, collected in US5798310A, “Glyphosate compositions and their use” (Monsanto Europe S.A., priority 1995, dated 1998).

Conditions: literature

| Compound | effect on herbicidal activity of glyphosate |
| --- | --- |
| N.N.O=S(=O)(O)O [ammonium sulphate] | further enhance the herbicidal activity |
| N#CS [ammonium thiocyanate] | further enhance the herbicidal activity |
